Reference: PubChem BioAssay AID272 (DTP/NCI, 2004)
Where “and” joins values, the source holds several entries; their conditions need not be identical. Equal entries are not always repeated. Inconclusive results are not listed.

System: Lewis lung carcinoma i.m., BDF1 mice, T/C %
Assay: NCI In Vivo Anticancer Drug Screen. Data for tumor model Lewis Lung Carcinoma (intramuscular) in B6D2F1 (BDF1) mice
In short: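 Antitumour activity is assessed in transplanted-tumour mice. Endpoint is survival or tumour size, normalised to vehicle-dosed controls (T/C).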

[1] = endpoint: mean tumor weight (est.), dose: 12.5 mg/kg/injection, schedule: Q01DX011 (ip), vehicle: saline with Tween-80, higher = larger tumour
[2] = endpoint: mean tumor weight (est.), dose: 25.0 mg/kg/injection, schedule: Q01DX011 (ip), vehicle: saline with Tween-80, higher = larger tumour
[3] = endpoint: mean tumor weight (est.), dose: 50.0 mg/kg/injection, schedule: Q01DX011 (ip), vehicle: saline with Tween-80, higher = larger tumour
[4] = endpoint: median survival time, dose: 25.0 mg/kg/injection, schedule: Q01DX011 (ip), vehicle: saline with Tween-80, higher = longer survival
[5] = endpoint: median survival time, dose: 50.0 mg/kg/injection, schedule: Q01DX011 (ip), vehicle: saline with Tween-80, higher = longer survival
[6] = endpoint: median survival time, dose: 12.5 mg/kg/injection, schedule: Q01DX011 (ip), vehicle: saline with Tween-80, higher = longer survival

SMILES: O=NN(CCCl)C(=O)NCC1CCC(CNC(=O)N(CCCl)N=O)CC1 (stereo unspecified)
- T/C (endpoint: median survival time, dose: 65.0 mg/kg/injection, schedule: Q07DX003 (ip), vehicle: Klucel (hydroxypropylcellulose) (HPC), higher = longer survival): 116 % of control
- T/C (endpoint: median survival time, dose: 108.0 mg/kg/injection, schedule: Q07DX003 (ip), vehicle: Klucel (hydroxypropylcellulose) (HPC), higher = longer survival): 106 % of control
- T/C (endpoint: median survival time, dose: 180.0 mg/kg/injection, schedule: Q07DX003 (ip), vehicle: Klucel (hydroxypropylcellulose) (HPC), higher = longer survival): 114 % of control
- T/C (endpoint: median survival time, dose: 300.0 mg/kg/injection, schedule: Q07DX003 (ip), vehicle: Klucel (hydroxypropylcellulose) (HPC), higher = longer survival): 106 % of control
- T/C (endpoint: median survival time, dose: 500.0 mg/kg/injection, schedule: Q07DX003 (ip), vehicle: Klucel (hydroxypropylcellulose) (HPC), higher = longer survival): 114 % of control

SMILES: CS(=O)(=O)OCCCNCCCOS(C)(=O)=O
- T/C (endpoint: median survival time, dose: 10.0 mg/kg/injection, schedule: Q01DX011 (ip), vehicle: saline, higher = longer survival): 110 % of control and 113 % of control and 119 % of control
- T/C (endpoint: median survival time, dose: 20.0 mg/kg/injection, schedule: Q01DX011 (ip), vehicle: saline, higher = longer survival): 109 % of control
- T/C (endpoint: median survival time, dose: 40.0 mg/kg/injection, schedule: Q01DX011 (ip), vehicle: saline, higher = longer survival): 92 % of control and 107 % of control

SMILES: CCCCC/C(C)=N\Nc1ccccn1
- T/C [1]: 91 % of control
- T/C [2]: 88 % of control
- T/C [3]: 80 % of control
- T/C [4]: 98 % of control
- T/C [5]: 98 % of control

SMILES: CO[C@H]1/C=C/O[C@@]2(C)Oc3c(C)c(O)c4c(O)c(c(/C=N/N5C(C)CN(Cc6ccccc6)CC5C)c(O)c4c3C2=O)NC(=O)/C(C)=C\C=C\[C@H](C)[C@H](O)[C@@H](C)[C@@H](O)[C@@H](C)[C@H](OC(C)=O)[C@@H]1C (stereo partly specified)
- T/C (endpoint: median survival time, dose: 25.0 mg/kg/injection, schedule: Q02DX009 (ip), vehicle: other, higher = longer survival): 117 % of control
- T/C (endpoint: median survival time, dose: 50.0 mg/kg/injection, schedule: Q02DX009 (ip), vehicle: Klucel (hydroxypropylcellulose) (HPC), higher = longer survival): 114 % of control
- T/C (endpoint: median survival time, dose: 50.0 mg/kg/injection, schedule: Q02DX009 (ip), vehicle: other, higher = longer survival): 107 % of control
- T/C (endpoint: median survival time, dose: 200.0 mg/kg/injection, schedule: Q02DX009 (ip), vehicle: Klucel (hydroxypropylcellulose) (HPC), higher = longer survival): 98 % of control
- T/C (endpoint: median survival time, dose: 200.0 mg/kg/injection, schedule: Q02DX009 (ip), vehicle: other, higher = longer survival): 87 % of control
- T/C (endpoint: median survival time, dose: 400.0 mg/kg/injection, schedule: Q02DX009 (ip), vehicle: Klucel (hydroxypropylcellulose) (HPC), higher = longer survival): 98 % of control

SMILES: O=[N+]([O-])c1cc(S(=O)(=O)OCC2CO2)ccc1Cl (stereo unspecified)
- T/C (endpoint: mean tumor weight (est.), dose: 6.25 mg/kg/injection, schedule: Q01DX011 (ip), vehicle: saline with Tween-80, higher = larger tumour): 66 % of control
- T/C [1]: 70 % of control
- T/C [2]: 47 % of control
- T/C (endpoint: median survival time, dose: 6.25 mg/kg/injection, schedule: Q01DX011 (ip), vehicle: saline with Tween-80, higher = longer survival): 100 % of control
- T/C [6]: 90 % of control
- T/C [4]: 101 % of control

SMILES: Cn1c(Cl)nc2c(Cl)nc(Cl)nc21
- T/C (endpoint: median survival time, dose: 1.0 mg/kg/injection, schedule: Q01DX011 (ip), vehicle: saline with Tween-80, higher = longer survival): 102 % of control
- T/C (endpoint: median survival time, dose: 2.0 mg/kg/injection, schedule: Q01DX011 (ip), vehicle: saline with Tween-80, higher = longer survival): 106 % of control
- T/C (endpoint: median survival time, dose: 4.0 mg/kg/injection, schedule: Q01DX011 (ip), vehicle: saline with Tween-80, higher = longer survival): 102 % of control
- T/C (endpoint: median survival time, dose: 8.0 mg/kg/injection, schedule: Q01DX011 (ip), vehicle: saline with Tween-80, higher = longer survival): 104 % of control
- T/C (endpoint: median survival time, dose: 16.0 mg/kg/injection, schedule: Q01DX011 (ip), vehicle: saline with Tween-80, higher = longer survival): 110 % of control

SMILES: CCCCn1cnc2c(N)ncnc21
- T/C [1]: 81 % of control
- T/C [2]: 95 % of control
- T/C [3]: 77 % of control
- T/C [6]: 93 % of control
- T/C [4]: 97 % of control
- T/C [5]: 87 % of control

SMILES: CC[C@](O)(C(=O)O)c1cc2n(c(=O)c1CO)Cc1cc3ccccc3nc1-2
- T/C (endpoint: mean tumor weight, dose: 0.06 mg/kg/injection, schedule: Q01DX011 (ip), vehicle: saline, higher = larger tumour): 95 % of control
- T/C (endpoint: mean tumor weight, dose: 0.12 mg/kg/injection, schedule: Q01DX011 (ip), vehicle: saline, higher = larger tumour): 96 % of control
- T/C (endpoint: mean tumor weight, dose: 0.25 mg/kg/injection, schedule: Q01DX011 (ip), vehicle: saline, higher = larger tumour): 101 % of control
- T/C (endpoint: mean tumor weight, dose: 0.5 mg/kg/injection, schedule: Q01DX011 (ip), vehicle: saline, higher = larger tumour): 91 % of control
- T/C (endpoint: mean tumor weight, dose: 1.0 mg/kg/injection, schedule: Q01DX011 (ip), vehicle: saline, higher = larger tumour): 106 % of control
- T/C (endpoint: median survival time, dose: 0.06 mg/kg/injection, schedule: Q01DX011 (ip), vehicle: saline, higher = longer survival): 105 % of control
- T/C (endpoint: median survival time, dose: 0.12 mg/kg/injection, schedule: Q01DX011 (ip), vehicle: saline, higher = longer survival): 116 % of control
- T/C (endpoint: median survival time, dose: 0.5 mg/kg/injection, schedule: Q01DX011 (ip), vehicle: saline, higher = longer survival): 118 % of control
- T/C (endpoint: median survival time, dose: 1.0 mg/kg/injection, schedule: Q01DX011 (ip), vehicle: saline, higher = longer survival): 102 % of control and 113 % of control and 124 % of control
- T/C (endpoint: median survival time, dose: 2.0 mg/kg/injection, schedule: Q01DX011 (ip), vehicle: saline, higher = longer survival): 214 % of control
